Test results as given in US20110237633A1, “SMALL MOLECULE MODULATORS OF HEPATOCYTE GROWTH FACTOR (SCATTER FACTOR) ACTIVITY” (priority 2008, published 2011).

Tested on: Endothelial cells (HUVECs)
Test: Assessment of HGF/SF-like activity: HUVEC proliferation (3H thymidine incorporation / Cell titer Glo)
Assay type: cell-based, human
Details: test compounds 10 μM (or 0.01 to 25 micromolar), 24 hr; growth compared to 50 ng/mL HGF control
Description: 1. Assessment of HGF/SF-like activity: The following assay is performed to assess the HGF/SF-like activity of the compounds of the invention. Endothelial cells (HUVECs) are seeded in 48 well plates at a density of 10,000 to 20,000 cells per well in the normal growth medium (EGM-2-Clonetics) containing 2% fetal bovine serum, FGF, VEGF, IGF, ascorbic acid, EGF, GA, heparin and hydrocortisone. The cells are grown normally in the growth medium for 24 hr at 37° C. and 5% CO2. The cells are then rinsed with RPMI-1% BSA and are starved for 1-2 hrs. The stock solutions of the compounds of the invention are made at a concentration of 10 mg/ml in DMSO and are diluted in RPMI-1% BSA at a final concentrations of 0.01 micromolar to 25 micromolar. The cells are then washed and are treated with the compounds and are incubated for another 24 hr at 37° C. Then ^3H thymidine (0.5 microgram/ml in RPMI-BSA) is added to the cells and they are incubated at 37° C. for 4 to 5 hours. The unincorporated thymidine is removed by washing the cells four times with 1×PBS. Then the cells are lysed with 0.5M NaOH for 30 min and the radioactivity is counted in the beta counter. A similar proliferation assay using monkey bronchial epithelial cells (4 MBR-5) is also employed.
In another assay format, HUVEC cells were grown in EGM-2 medium (Lonza) with 5% FBS to 80% confluence at 37° C. and in 5% CO2. Cells were plated in a white opaque flat bottom 96 well plate at a density of 10000 cells per well and in a volume of 100 μL, and incubated overnight and starved by washing twice in serum-free EGM-2 media. After 2 hours, cells were treated with 100 μL EGM-2 medium containing 10 μM test compounds and incubated for an additional 24 hours at 37° C. (All compounds were in DMSO and the final concentration of DMSO in the assay was 0.1%). In all experiments, serum (5%) and HGF (50 ng/mL final) were run as positive controls and DMSO vehicle was run as a negative control. 10 μL Cell titer Glo reagent (Promega) was added to each well and plates were mixed by gentle tapping. After 10 minutes at room temperature, plates were read on a Packard Top Count Luminescence plate reader. Proliferation was expressed as a percentage of growth compared to 50 ng/mL HGF control, with the DMSO control representing 0% growth and the HGF control representing 100% growth.

Molecule | HGF/SF-like activity (HUVEC proliferation)
CCn1c(C)nc2cc(-c3ccccc3)ccc21 [1-ethyl-2-methyl-5-phenyl-1H-benzo[d]imidazole] | active
CC(C)N1CC(c2nc(-c3ccc4ccccc4c3)c[nH]2)CC1=O (centres unmarked) [1-isopropyl-4-(4-(naphthalen-2-yl)-1H-imidazol-2-yl)pyrrolidin-2-one] | active
C(=Cc1cccs1)c1ccc[nH]1 [2-(2-(thiophen-2-yl)vinyl)-1H-pyrrole] | active
Nc1ccc(C=Cc2nc3cc(N)ccc3[nH]2)cc1 [2-(4-aminostyryl)-1H-benzo[d]imidazol-5-amine] | active
c1ccc2cc(-c3ncc[nH]3)ccc2c1 [2-(naphthalen-2-yl)-1H-imidazole] | active
C(=Cc1ncc[nH]1)c1ccccc1 [2-styryl-1H-imidazole] | active
CSc1nnc(C=Cc2cccs2)[nH]1 [3-(methylthio)-5-(2-(thiophen-2-yl)vinyl)-4H-1,2,4-triazole] | active
c1ccc2cc(-c3cnc[nH]3)ccc2c1 [5-(naphthalen-2-yl)-1H-imidazole] | active
c1ccc2cc(-c3nnn[nH]3)ccc2c1 [5-(naphthalen-2-yl)-1H-tetrazole] | active
C(=Cc1cnc[nH]1)c1ccccc1 [5-styryl-1H-imidazole] | active
C(=Cc1nnn[nH]1)c1ccccc1 [5-styryl-1H-tetrazole] | active
Nc1nnc(C=Cc2ccccc2)[nH]1 [5-styryl-4H-1,2,4-triazol-3-amine] | active
c1coc(-c2ccc3cn[nH]c3c2)c1 [6-(furan-2-yl)-1H-indazole] | active
c1cc(-c2ccc3cn[nH]c3c2)co1 [6-(furan-3-yl)-1H-indazole] | active
c1csc(-c2ccc3cn[nH]c3c2)c1 [6-(thiophen-2-yl)-1H-indazole] | active
c1cc(-c2ccc3cn[nH]c3c2)cs1 [6-(thiophen-3-yl)-1H-indazole] | active
CS(=O)(=O)Nc1ccc(-c2ccc3nc[nH]c3c2)cc1 [N-(4-(1H-benzo[d]imidazol-6-yl)phenyl)methanesulfonamide] | active

Tested on: MDCK cells
Test: not given
Details: not given

Molecule | cell viability after pretreatment, then adriamycin [%]
HGF: Scatter factor / hepatocyte growth factor, pleiotropic growth factor used as positive control | 94

Tested on: LX2 cells (collagen I mRNA)
Test: Antifibrotic activity: collagen I mRNA by real time PCR in LX2 hepatic stellate cells
Assay type: cell-based, human
Details: serum starved LX2 cells, 24 hours, HGF 100 ng/ml
Description: 2. Antifibrotic Activity of HGF and compounds of the invention in vitro and in vivo. The antifibrotic effects of HGF and compounds of the invention in the immortalized human hepatic stellate cell line LX2 are determined. Serum starved LX2 cells are treated for 24 hours with HGF at 100 ng/ml and compounds of the invention at doses ranging from 12 to 24 ug/ml. RNA is then isolated and real time PCR is performed to evaluate changes in collagen I mRNA. Results typically indicate a 90% and 70% decrease in collagen I mRNA expression in cells treated with instant compounds and HGF, respectively. Additional experiments to determine the effects of HGF and compounds on TGFb-1, bPDGF-R and MMP-1 mRNA are also performed to more completely characterize activities of these compounds which can contribute to their antifibrotic effects.

Molecule | decrease in collagen I mRNA expression [%]
HGF: Scatter factor / hepatocyte growth factor, pleiotropic growth factor used as positive control | 70

Tested on: not listed separately
Test: MTT cell viability assay, protection from adriamycin-induced apoptosis
Details: dog, MDCK cells
Description: Using the MTT cell viability assay the ability of compounds of the invention to protect cells from adriamycin-induced apoptosis is tested.

Molecule | viability [%]
COc1cccc2c1C(=O)c1c(O)c3c(c(O)c1C2=O)C[C@@](O)(C(=O)CO)C[C@@H]3O[C@H]1C[C@H](N)[C@H](O)[C@H](C)O1 [Adriamycin, adriamycin] | 56
